Literature values as cited in PMC8252455, “Prediction of a clinically effective dose of THY1773, a novel V 1B receptor antagonist, based on preclinical data” (Biopharmaceutics & Drug Disposition, 2021).

Tested on: depressive symptoms
Parameters: method as in Griebel, Beeské, & Stahl, 2012
Conditions: patients with MDD; ref Griebel, Beeské, & Stahl, 2012; cited from earlier work

For `COc1ccc(S(=O)(=O)N2C(=O)[C@@](c3ccccc3OC)(N3C[C@H](O)C[C@H]3C(=O)N(C)C)c3cc(Cl)ccc32)c(OC)c1` [SSR149415], the “Antidepressant effect in MDD trials” value is listed as “failed to demonstrate clear antidepressant effects”.
